According to patent US20240252488A1 (KOREA RESEARCH INSTITUTE OF CHEMICAL TECHNOLOGY, priority 2020, published 2024):

What was measured:
[1] = target: T1, MLKL (Homo sapiens, UniProt Q8NB16); test: MLKL degradation assay in HepG2 cell line (western blot); type: cell-based; set-up: endogenous in cells; host or cells: HepG2 or HaCaT; conditions: cell line not given; for Degradation assay (Degradation %) 1 μM: compound 1 μM; for Degradation assay (Degradation %) 10 μM: compound 10 μM
T1 sequence (Q8NB16 1-471): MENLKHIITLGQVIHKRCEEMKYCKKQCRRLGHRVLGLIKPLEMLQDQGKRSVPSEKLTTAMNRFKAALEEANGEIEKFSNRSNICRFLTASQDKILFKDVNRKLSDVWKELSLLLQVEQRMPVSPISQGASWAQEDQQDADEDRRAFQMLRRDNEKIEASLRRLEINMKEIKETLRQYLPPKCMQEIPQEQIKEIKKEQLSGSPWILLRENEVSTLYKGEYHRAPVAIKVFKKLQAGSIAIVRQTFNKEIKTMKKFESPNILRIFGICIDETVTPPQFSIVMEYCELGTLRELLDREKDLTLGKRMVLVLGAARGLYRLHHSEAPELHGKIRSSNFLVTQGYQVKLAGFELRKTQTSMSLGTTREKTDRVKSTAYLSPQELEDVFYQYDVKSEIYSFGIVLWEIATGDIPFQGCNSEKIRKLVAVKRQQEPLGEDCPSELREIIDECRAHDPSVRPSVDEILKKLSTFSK
Outline: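 Chemiluminescent western blot signal reports remaining MLKL protein in HepG2 cells after 20-24 h treatment with compound at a final 1 or 10 μM. Equal protein (10-15 μg, BCA) is loaded per lane.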

[2] = test system: FADD−/− Jurkat cells; test: Necroptosis inhibition assay, TNF-α-induced necroptosis (CellTiter-Glo 2.0); type: cell-based, human; conditions: TNF-α 15 ng/mL; for Necroptosis inhibition assay (Rescue %) 1 μM: compound 1 μM; for Necroptosis inhibition assay (Rescue %) 10 μM: compound 10 μM
Outline: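 Compound is added to cells at final concentrations of 0.1, 1 and 10 μM and left 30 minutes at room temperature. Necroptosis is induced with 15 ng/mL TNF-α, culture continues 20 to 24 hours at 37° C, and ATP-based luminescence reports viability.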

[3] = target: T1, MLKL; test: Measurement of binding affinity with MLKL receptor (competitive binding assay, Kd); set-up: made in house; host or cells: HEK 293 cell line (T7 phage in E. coli BL21-derived host is also described)
Outline: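 Kd from an immobilized-ligand competition format: the DNA-tagged kinase from HEK 293 expression is eluted and quantified by qPCR. Compounds added from 111× DMSO stocks, final DMSO 0.9%.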

Structure (SMILES) | Degradation assay (Degradation %) 1 μM [1] [%] | Degradation assay (Degradation %) 10 μM [1] [%] | Necroptosis inhibition assay (Rescue %) 1 μM [2] [%] | Necroptosis inhibition assay (Rescue %) 10 μM [2] [%] | Kd [3] [nM] | Necroptosis inhibition assay (Rescue %) 1 μM ([2]; FADD−/− Jurkat cells) [%] | Necroptosis inhibition assay (Rescue %) 10 μM ([2]; FADD−/− Jurkat cells) [%] | Necroptosis inhibition assay (Rescue %) 1.1 μM ([2]; compound 1.1 µM)
Nc1ncc(-c2cnn(C3CCN(CCC4CCN(c5ccc6c(c5)C(=O)N(C5CCC(=O)NC5=O)C6=O)CC4)CC3)c2)nc1C(=O)O[C@@H](C(=O)Nc1ccc(F)cc1)c1ccccc1 (stereo partly drawn) [TDH-203, (R)-2-((4-fluorophenyl)amino)-2-oxo-1-phenylethyl 3-amino-6-(1-(1-(2-(1-(2-(2,6-dioxopiperidin-3-yl)-1,3-dioxoisoindolin-5-yl)piperidin-4-yl)ethyl)piperidin-4-yl)-1H-pyrazol-4-yl)pyrazine-2-carboxylate] | 61.41 | 34.74 | 64.32 | 40.46 | 3.2 |  |  | 
Nc1ncc(-c2cnn(C3CCN(CCCCCCCCCCNC(=O)COc4ccc5c(c4)C(=O)N(C4CCC(=O)NC4=O)C5=O)CC3)c2)nc1C(=O)O[C@@H](C(=O)Nc1ccc(F)cc1)c1ccccc1 (stereo partly drawn) [TDH-164, (R)-2-((4-fluorophenyl)amino)-2-oxo-1-phenylethyl 3-amino-6-(1-(1-(10-(2-((2-(2,6-dioxopiperidin-3-yl)-1,3-dioxoisoindolin-5-yl)oxy)acetamido)decyl)piperidin-4-yl)-1H-pyrazol-4-yl)pyrazine-2-carboxylate] | 55.2 | 46.68 | 27.84 | 10.5 | 20 |  |  | 
Nc1ncc(-c2cnn(C3CCN(CCC4CCN(C(=O)CNc5cccc6c5C(=O)N(C5CCC(=O)NC5=O)C6=O)CC4)CC3)c2)nc1C(=O)O[C@@H](C(=O)Nc1ccc(F)cc1)c1ccccc1 (stereo partly drawn) [TDH-198, (R)-2-((4-fluorophenyl)amino)-2-oxo-1-phenylethyl 3-amino-6-(1-(1-(2-(1-((2-(2,6-dioxopiperidin-3-yl)-1,3-dioxoisoindolin-4-yl)glycyl)piperidin-4-yl)ethyl)piperidin-4-yl)-1H-pyrazol-4-yl)pyrazine-2-carboxylate] | 69.49 | 41.71 | 79.13 | 31.65 | 1.3 |  |  | 
Nc1ncc(-c2cnn(C3CCN(CC4CN(C(=O)CNc5ccc6c(c5)C(=O)N(C5CCC(=O)NC5=O)C6=O)CCO4)CC3)c2)nc1C(=O)OC(C(=O)Nc1ccc(F)cc1)c1ccccc1 (stereo not shown) [TDH-307, 2-((4-fluorophenyl)amino)-2-oxo-1-phenylethyl 3-amino-6-(1-(1-((4-((2-(2,6-dioxopiperidin-3-yl)-1,3-dioxoisoindolin-5-yl)glycyl)morpholin-2-yl)methyl)piperidin-4-yl)-1H-pyrazol-4-yl)pyrazine-2-carboxylate] | 57.38 | 24.79 | 83.43 | 73.58 | 1.6 |  |  | 
COc1ccc(C(=O)N2CCC(CN3CCC(CN4CCC(n5cc(-c6cnc(N)c(C(=O)O[C@@H](C(=O)Nc7ccc(F)cc7)c7ccccc7)n6)cn5)CC4)CC3)CC2)cc1N1CCC(=O)NC1=O [TDH-477, (R)-2-((4-fluorophenyl)amino)-2-oxo-1-phenylethyl 3-amino-6-(1-(1-((1-((1-(3-(2,4-dioxotetrahydropyrimidin-1(2H)-yl)-4-methoxybenzoyl)piperidin-4-yl)methyl)piperidin-4-yl)methyl)piperidin-4-yl)-1H-pyrazol-4-yl)pyrazine-2-carboxylate] | 92.48 | 90.67 |  |  | 0.26 | 62.38 | 21.83 | 
Nc1ncc(-c2cnn(C3CCN(CCOCCOCCNC(=O)CNc4cccc5c4C(=O)N(C4CCC(=O)NC4=O)C5=O)CC3)c2)nc1C(=O)O[C@@H](C(=O)Nc1ccc(F)cc1)c1ccccc1 (stereo partly drawn) [TDH-102, (R)-2-((4-fluorophenyl)amino)-2-oxo-1-phenylethyl 3-amino-6-(1-(1-(2-(2-(2-(2-((2-(2,6-dioxopiperidin-3-yl)-1,3-dioxoisoindolin-4-yl)amino)acetamido)ethoxy)ethoxy)ethyl)piperidin-4-yl)-1H-pyrazol-4-yl)pyrazine-2-carboxylate] | 12.94 | 42.92 | 39.17 | 42.99 | 2.1 |  |  | 
Nc1ncc(-c2cnn([C@H]3CCN(CC4CCN(C(=O)COc5cccc6c5C(=O)N(C5CCC(=O)NC5=O)C6=O)CC4)C3)c2)nc1C(=O)OC(C(=O)Nc1ccc(F)cc1)c1ccccc1 (stereo partly drawn) [TDH-283, 2-((4-fluorophenyl)amino)-2-oxo-1-phenylethyl 3-amino-6-(1-((3S)-1-((1-(2-((2-(2,6-dioxopiperidin-3-yl)-1,3-dioxoisoindolin-4-yl)oxy)acetyl)piperidin-4-yl)methyl)pyrrolidin-3-yl)-1H-pyrazol-4-yl)pyrazine-2-carboxylate] | 4.29 | 31.1 | 44.29 | 54.92 | 2.1 |  |  | 
Nc1ncc(-c2cnn(C3CCN(CCOC4CCN(C(=O)COc5ccc6c(c5)C(=O)N(C5CCC(=O)NC5=O)C6=O)CC4)CC3)c2)nc1C(=O)O[C@@H](C(=O)Nc1ccc(F)cc1)c1ccccc1 (stereo partly drawn) [TDH-332, (R)-2-((4-fluorophenyl)amino)-2-oxo-1-phenylethyl 3-amino-6-(1-(1-(2-((1-(2-((2-(2,6-dioxopiperidin-3-yl)-1,3-dioxoisoindolin-5-yl)oxy)acetyl)piperidin-4-yl)oxy)ethyl)piperidin-4-yl)-1H-pyrazol-4-yl)pyrazine-2-carboxylate] | 61.62 | 63.17 |  | 37.17 | 2.6 |  |  | 68.62 (1.1 µM) %
Nc1ncc(-c2cnn(C3CCN(C(=O)CC4CCN(C(=O)CNc5ccc6c(c5)C(=O)N(C5CCC(=O)NC5=O)C6=O)CC4)CC3)c2)nc1C(=O)O[C@@H](C(=O)Nc1ccc(F)cc1)c1ccccc1 (stereo partly drawn) [TDH-340, (R)-2-((4-fluorophenyl)amino)-2-oxo-1-phenylethyl 3-amino-6-(1-(1-(2-(1-((2-(2,6-dioxopiperidin-3-yl)-1,3-dioxoisoindolin-5-yl)glycyl)piperidin-4-yl)acetyl)piperidin-4-yl)-1H-pyrazol-4-yl)pyrazine-2-carboxylate] | 73.39 | 73.33 | 42.94 | 43.81 | 7.5 |  |  | 
Nc1ncc(-c2cnn(C3CCN(CCCC4CCN(C(=O)COc5ccc6c(c5)C(=O)N(C5CCC(=O)NC5=O)C6=O)CC4)CC3)c2)nc1C(=O)O[C@@H](C(=O)Nc1ccc(F)cc1)c1ccccc1 (stereo partly drawn) [TDH-482, (R)-2-((4-fluorophenyl)amino)-2-oxo-1-phenylethyl 3-amino-6-(1-(1-(3-(1-(2-((2-(2,6-dioxopiperidin-3-yl)-1,3-dioxoisoindolin-5-yl)oxy)acetyl)piperidin-4-yl)propyl)piperidin-4-yl)-1H-pyrazol-4-yl)pyrazine-2-carboxylate] | 91.19 | 88.98 |  |  | 1.2 | 78.94 | 42.16 | 
Nc1ncc(-c2cnn(C3CCN(CC4CN(c5cccc6c5C(=O)N(C5CCC(=O)NC5=O)C6=O)CCO4)CC3)c2)nc1C(=O)OC(C(=O)Nc1ccc(F)cc1)c1ccccc1 (stereo not shown) [TDH-310, 2-((4-fluorophenyl)amino)-2-oxo-1-phenylethyl 3-amino-6-(1-(1-((4-(2-(2,6-dioxopiperidin-3-yl)-1,3-dioxoisoindolin-4-yl)morpholin-2-yl)methyl)piperidin-4-yl)-1H-pyrazol-4-yl)pyrazine-2-carboxylate] | 35.97 | 27.19 | 40.08 | 41.99 | 2.6 |  |  | 
